Experiments:
[1] = system: CCR10+ IPF Cell-Induced Fibrosis in NSG Mice; experiment: Humanized NSG mouse model of IPF: BIBF1120 from day 35 (Masson's trichrome, hydroxyproline, flow cytometry); format: in vivo; details: for modulation of fibrosis in humanized NSG model of IPF: therapeutic treatment from day 35
Method: IPF cells were injected intravenously into NSG mice and beginning at day 35 after injection mice were treated either with a solutol vehicle or 60 mg/kg BIBF-1120 solubilized in solutol for 5 days a week over 4 weeks. (A-C) Depicted are representative images of Masson's Trichrome staining of non-humanized (A) and humanized NSG mice that received solutol (B) or BIBF-1120 (C). (D) Depicted is the hydroxyproline in the lungs of non-humanized or humanized NSG mice that received solutol or BIBF-1120. Data are mean±s.e.m.; n=5-10/group. (E-F) Solutol- or BIBF1120-treated NSG humanized mouse lungs were analyzed by flow cytometry for human CD45, EpCAM and/or CCR10 expression. Depicted is the average number of CD45^+ CCR10^+ (E) and Lin^− CCR10^+ (F) cells in humanized NSG mice treated with solutol or BIBF1120. Data are mean±s.e.m.; n=5-10/group. p values indicated
Six to eight-week old, female, pathogen free NOD Cg-Prkdc^SCID IL2rg^Tm1wil Szi (NSG) or NOD.Cg-Prkdc^SCID IL2rg^tm1Wil Tg(CAG-EGFP) 10sb/SzJ (NSG-GFP) were purchased from Jackson Laboratories and housed in Cedars-Sinai Medical Center's high isolation animal rooms. NSG mice were allowed a minimum of one week to acclimate in the facility and then these mice either received nothing (i.e., non-humanized) 1×10^6 IPF cells by intravenous injection (i.e. humanized). In most in vivo experiments, the IPF cells used were removed from liquid N2 storage, rapidly thawed, and washed in serum-free medium prior to injection into NSG mice. Humanized NSG mice received KB004 (i.e., anti-EphA3 mAb supplied by Kalobios; 5 mg/kg) or KB243 (i.e., appropriate IgG control supplied by Kalobios; 5 mg/kg) either from days 0 to 35 or from days 35 to 63 by intraperitoneal injection twice weekly. […] Other groups of humanized NSG mice received either vehicle (i.e., solutol) or BIBF1120 (Cayman Chemicals) by oral gavage beginning at day 35 after IPF cell injection. Vehicle or drug was administered 5 days a week until day 63 after IPF cell injection. All NSG groups were monitored daily and mice were sacrificed if there is evidence for morbidity such as weight loss of more than 20%, loss of fur, paralysis and/or lack of responsiveness when handled.
Murine lung cellular suspensions were generated using a mouse lung dissociation kit, C-tubes, and a GentleMacs dissociator (Miltenyi Biotech). Spleens were dissociated using a sterile rubber tip of 1 ml syringe plunger and 100 μm 50 ml tube filters (BD bioscience) as follows: isolated spleens were placed in 1 ml of sterile complete medium until all the samples were collected. Sterile 50 ml conical tube filters were placed on top of sterile 50 ml conical tubes and were equilibrated by pipetting 1 ml of calcium and magnesium free DPBS (DBPS; Cellgro) through the filters. Spleens were transferred to a sterile 50 ml filter, cellular suspensions were generated using a sterile rubber tip of a syringe plunger, and splenic material was flushed with 5 ml of DPBS. Lung and splenic cell suspensions were centrifuged and resuspended in 1 ml of RBC lysis buffer (Biolegend), incubated at room temperature for 1-2 min and then equilibrated by adding 25 ml of DPBS to each tube. Cells were centrifuged and resuspended in flow cytometric wash/staining buffer (DPBS+2% FBS) in the presence of human and mouse Fc receptor blocking antibodies (Biolegend). Cells were then stained with anti-human-CD45, -EpCAM and -CCR10 antibodies for 20 min at 4° C. Unstained, isotype controls, fluorescent minus one controls and staining in non-humanized murine lung and spleen suspensions were utilized to gate out any non-specific antibody binding and background fluorescence. CCR10 antibodies were validated via the enrichment for CCR10 transcripts in magnetically sorted CCR10^+ cells versus non-sorted normal and IPF explant cells (FIG. 35). […]

[2] = FDA approved treatment of IPF patients; cited from earlier work
[3] = system: normal and IPF lung fibroblasts; experiment: Soluble collagen 1 ELISA of lung fibroblast conditioned supernatants; format: cell-based, human
Method: Lung fibroblasts (5000/well) were plated into a 96 well plate and incubated overnight. After incubation, cells were stimulated with 20 ng/ml of IL1β or vehicle in the presence or absence of 20 μg/ml of EphA3-Fc or IgG antibodies (supplied by Kalobios) for 24 and 72 h. After stimulation, conditioned supernatants were collected and the cells were washed and fixed with 4% paraformaldehyde solution in PBS for 10 min at room temperature.
Lung fibroblast conditioned supernatants were diluted 1:5 in DPBS. Purified Collagen 1 (STEMCELL Technologies Inc), diluted in 1:5 DBPS diluted complete medium, was utilized to generate an 8-point collagen 1 standard ranging from 200-0 ng/ml. Fifty microliters of the supernatants and standards were coated onto multisorb 96 well plates (Thermo Fisher Scientific) overnight at 4° C. After coating, the plates were washed and blocked with 200 μl of 3% BSA solution in DPBS (Lonza) for 1 h at room temperature on an orbital shaker. After blocking, plates were washed and 50 μl of 200 ng/ml biotin-conjugated anti collagen-1 antibody (Abcam Ab24821) was added to each well and the plates were incubated for 2 h at room temperature on an orbital shaker. […] Data were acquired by reading the absorbance at 405 nm using a Synergy H1 microplate reader (BioTek Instruments Inc.). […]

[4] = system: normal and IPF lung fibroblasts; experiment: Flow cytometry for cell surface EphA3 expression on stimulated lung fibroblasts; format: cell-based, human; details: 20 ng/ml; twenty-four hours after stimulation
Method: IPF surgical lung biopsy samples were obtained. IPF lung fibroblasts were generated by mechanically dissociating IPF lung biopsies or explants into sterile tissue culture plates. After mechanical dissociation, tissues were passed through a 25-ml pipette for 10 times, in DMEM (Lonza)+15% FBS (Cell Generation), 100 IU penicillin and 100 μg/ml streptomycin (Mediatech), 292 μg/ml L-Glutamine (Mediatech) and 100 μg/ml of Primocin (Invivogen) (complete medium). Cells were cultured at 37° C. and 10% CO2, medium was changed twice a week by careful removal of the liquid and retaining the minced tissues. This process was repeated for 1-2 weeks, until stromal colonies were apparent, after which fibroblast colonies were trypsinized and passaged. After 4-5 passages, fibroblast purity was confirmed using flow cytometry and/or qPCR analysis for CD45, EpCAM and CD31. Fibroblasts were then cultured in complete medium; fresh medium was added to the fibroblasts every 2-3 days and the cells were passaged when they were 70-90% confluent. […] After treatment, cells were then analyzed by flow cytometry for cell surface EphA3 expression.
Lung fibroblasts were plated and treated as described above. […] Flow cytometric data were acquired using a MACSQuant 10 (Miltenyi Biotech) flow cytometer and data were analyzed using Flowjo software V10.2 (freest& Inc.).

[5] = system: normal and IPF lung fibroblasts; experiment: In cell αSMA ELISA in lung fibroblasts; format: cell-based, human; details: CCL28; data not shown
Method: Lung fibroblasts (5000/well) were plated into a 96 well plate and incubated overnight. […] After stimulation, conditioned supernatants were collected and the cells were washed and fixed with 4% paraformaldehyde solution in PBS for 10 min at room temperature.
After fixation, cells were washed and permeabilized with 0.5% Triton X-100 in DPBS for 10 min, washed and endogenous peroxidase activity was blocked by adding a solution of 0.3% H2O2 in DPBS to the cells and incubating the cells with the solution for 20 min at room temperature. Cells were then washed and wells were blocked with a 1% BSA solution in DPBS for 30 min at room temperature. After blocking, cells were incubated with 500 ng/ml of anti-czSMA antibodies (Clone 1A4, Abcam) overnight at 4° C. on a rocker. […] The reaction was then stopped by adding 50 μl of 2N sulfuric acid and data were acquired by reading the absorbance at […] using a Synergy H1 microplate reader (BioTek Instruments Inc.). […] Data were acquired by reading the absorbance at 595 nm using a Synergy H1 microplate reader (BioTek Instruments Inc.). Ratios were generated from αSMA/β-tubulin absorbance data and the results were normalized to vehicle. The fold change after 24 and 72 h relative to vehicle was then determined and depicted in the figures.

lung fibroblast = experiment: Lung fibroblast invasiveness (not shown); format: cell-based, human; details: CCL28; data not shown
[6] = 60 mg/kg from day 35, day 63, flow cytometry

Question: Which “lung hydroxyproline compared with non-humanized NSG lungs” value ([1]; 60 mg/kg from day 35, day 63) does the source give for COC(=O)c1ccc2c(c1)NC(=O)/C2=C(\Nc1ccc(N(C)C(=O)CN2CCN(C)CC2)cc1)c1ccccc1 [BIBF1120, Nintedanib] here?
Answer: elevated

Question: What about the “CD45+ CCR10+ cells in NSG lungs compared with vehicle-treated group” value [1, 6] of the same molecule?
Answer: greater

Question: And the “Lin- CCR10+ cells in NSG lungs compared with vehicle-treated group” value [1, 6]?
Answer: greater

Question: What about the “lung fibrosis (Masson's trichrome staining)” value ([1]; 60 mg/kg in solutol from day 35, lungs at day 63 after IPF cell injection) of the same molecule?
Answer: showed lung fibrosis

Question: And the “modulation of fibrosis in humanized NSG model of IPF” value [1]?
Answer: ineffective at modulating fibrosis

Question: And the “modulation of fibrosis in humanized NSG model of IPF” value ([1]; listed as nintedanib)?
Answer: did not therapeutically modulate fibrosis

Question: What about the “disease progression in IPF patients” value [2] of the same molecule?
Answer: effective at slowing down, but not halting, disease progression

Question: With Cc1ccc(=O)n(-c2ccccc2)c1 [ESBRIET, Pirfenidone] as the molecule, how does the “disease progression in IPF patients” value [2] read?
Answer: effective at slowing down, but not halting, disease progression

Question: With “IL1β: cytokine Interleukin 1 beta used to stimulate lung fibroblasts (R&D systems) [reference compound]” as the molecule, how does the “collagen 1 in normal and IPF lung fibroblasts” value ([3]; IL1β 20 ng/ml, after 24 and, to a lesser extent, 72 h) read?
Answer: induced

Question: And the “surface EphA3 on normal and IPF lung fibroblasts” value [4]?
Answer: significantly unregulated

B1: CCL28: chemokine, CCR10 ligand (protein, UniProt Q9NRJ3 20-127, looked up)
C-C motif chemokine 28: SEAILPIASSCCTEVSHHISRRLLERVNMCRIQRADGDCDLAAVILHVKRRRICVSPHNHTVKQWMKVQAAKKNGKGNVCHRKKHHGKRNSNRAHQGKHETYGHKTPY
Question: For B1, which “collagen 1 secretion by lung fibroblasts” value ([3]; CCL28, data not shown) is on record?
Answer: did not consistently modulate

Question: What about the “αSMA protein expression in lung fibroblasts” value [5] of the same molecule?
Answer: did not consistently modulate

Question: And the lung fibroblast invasiveness (lung fibroblast)?
Answer: did not consistently modulate

Source: patent US11397178B2, “Method of predicting progression of idiopathic pulmonary fibrosis and monitoring of therapeutic efficacy” (Cedars-Sinai Medical Center, priority 2016, dated 2022)
